Assay [1] deals with voltage-gated Na+ channels. Description: Sodium (Na+) channel analysis in rat DRG neurons using whole cell patch-clamp. Format: cell-based. The procedure: Isolated DRG neurons were suspended in primary neuron basal media and placed on glass coverslips for incubation in humidified atmosphere of 5% CO2 at 37° C. Coverslip carrying cells was transferred to the bath of an inverted microscope (Zeiss), continuously perfused with oxygenated artificial cerebro-spinal fluid (ACSF) containing (in mM) 124 NaCl, 2.5 KCl, 2 CaCl2, 1 MgSO4, 25 NaHCO3, 1 NaH2PO4, and 10 glucose, at a rate of 2-3 ml/min. Recording of whole-cell membrane currents were made at room temperature. Recording pipette (4-6 MO) was filled with internal solution containing (in mM) 145 K-gluconate, 5 NaCl, 1 MgCl2, 0.2 EGTA, 10 HEPES, 2 Mg-ATP, 0.1 Na-GTP, and 10 phosphocreatine. To isolate Na^+ currents, DRG neurons were superfused with ACSF containing tetraethylammonium chloride (TEA) 5 mM, cesium chloride (CsCl) 100 μM and cadmium chloride (CdCl) 1 mM, to block potassium and calcium currents. OBM compounds were freshly dissolved in ASCF containing TEA, CsCl and CdCl, prior application via the bath.
For recording Na^+ currents, cells were held at −60 mV before applying a conditioning hyperpolarizing step (50 ms) to −90 mv to reactivate the voltage-gated Na^+ channels. The conditioning pulse was followed by depolarizing (150 ms) test pulses to 50 mV in 10 mV increments. Na^+ currents were recorded in absence, after 3 min in presence of the drugs and after a recovery time of 3 min.

The next assay concerns zebrafish embryos. Description: Zebrafish response assay (embryonic touch response/swim behaviour, complete anaesthesia). Format: in vivo. To be noted: Danio rerio, 1.5 h; complete anaesthesia (scale 1) in 50% of embryos, 90 min at 28° C., 54 hpf AB wild type embryos. The text has this: Briefly, the ZEA assay involved applying essential oils, fractions or individual compounds to developmentally staged zebrafish embryos followed by monitoring of embryonic touch response/swim behaviour and evaluation of the dose response relationship for each substance. Using a four point scale to describe the embryonic behaviours (Table 4), initial analysis focused on monitoring and recording these changes and evaluating the level of bioactivity. […] (optimal temperature for embryonic growth) in the diluted compound. • The four point scale (Table 4) was used to evaluate the touch response and swim behaviour for each embryo in all wells. • The effectiveness of the compound was based on its ability to generate complete anesthesia (scale: 1) in 50% of the embryos at a given concentration (EC50). • The EC50 values were calculated using GraphPad Prism® software to analyze the log (dose) response curves. The results are shown in Table 3, and in FIG. 3 as a dose response curve of zebrafish embryo assay, a percentage response versus percentage of compound present.

In another assay the target is T1, TRPV1 (Homo sapiens, UniProt Q8NER1).
T1 construct: expressed in transfected cells; host or cells: HEK-TRPV cells
T1 sequence (Q8NER1 whole entry, species assumed): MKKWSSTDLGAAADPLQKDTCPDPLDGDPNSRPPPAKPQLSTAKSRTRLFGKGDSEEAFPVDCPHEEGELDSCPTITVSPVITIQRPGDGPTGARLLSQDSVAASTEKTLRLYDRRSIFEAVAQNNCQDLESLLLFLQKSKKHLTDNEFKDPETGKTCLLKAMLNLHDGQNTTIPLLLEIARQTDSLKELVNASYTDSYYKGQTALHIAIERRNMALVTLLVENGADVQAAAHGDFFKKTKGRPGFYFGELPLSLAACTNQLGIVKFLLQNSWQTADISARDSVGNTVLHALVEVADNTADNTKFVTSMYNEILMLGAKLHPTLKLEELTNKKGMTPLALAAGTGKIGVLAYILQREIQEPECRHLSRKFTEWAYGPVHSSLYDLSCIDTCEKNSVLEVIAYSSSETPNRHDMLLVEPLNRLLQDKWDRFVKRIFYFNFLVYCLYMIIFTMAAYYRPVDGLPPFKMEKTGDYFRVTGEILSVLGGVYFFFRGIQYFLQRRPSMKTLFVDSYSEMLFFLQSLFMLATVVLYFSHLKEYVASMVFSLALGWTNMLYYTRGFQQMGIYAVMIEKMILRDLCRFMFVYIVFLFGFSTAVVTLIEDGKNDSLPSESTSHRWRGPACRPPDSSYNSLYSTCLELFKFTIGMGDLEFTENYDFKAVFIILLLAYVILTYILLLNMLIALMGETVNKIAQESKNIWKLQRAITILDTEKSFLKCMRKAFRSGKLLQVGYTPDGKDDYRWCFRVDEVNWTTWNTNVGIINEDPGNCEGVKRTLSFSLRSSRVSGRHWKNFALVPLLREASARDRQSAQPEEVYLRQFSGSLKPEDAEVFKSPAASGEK
The experiment in a line: TRPV1 assay, calcium imaging. Format: cell-based. To be noted: Ca2+ imaging after 1 μM capsaicin, HEK-TRPV cells. The procedure:
Briefly, cells were seeded into poly-L-lysine-coated, glass-bottom, 24-well plates (1×10^5 cells/well) and incubated overnight under standard culture conditions to achieve the desired confluency. Culture media was removed and cells were washed twice with HBS prior to incubation for 15 to 60 min at 37° C. with a labelling mixture comprised of Fura-2-AM and pluronic acid in HBS. Data collection occurred over an eight minute period and followed the same general sequence. Following loading, cells were stimulated by addition of 1 μM of capsaicin agonist for 2 min, after which a concentration series of the test sample (e.g. (0.5, 5, 10, 50 μg/ml) was added and imaging continued for an additional 5 min. Capsazepine (20 μM) served as a known reference antagonist, while cells that were mock-treated or received vehicle (e.g., DMSO) alone served as negative controls. For imaging, plates were placed on the stage of an inverted epifluorescence microscope (e.g., Axiovert 200, Zeiss) equipped with a CCD digital camera (e.g., Axiocam MRm, Zeiss). For each well of the plate, a sequence of image pairs (excitation at 340 nm and 380 nm) were collected to capture intracellular calcium flux. Image sequences were analyzed in ImageJ (NIH) and average pixel intensities calculated for six representative cells in each test condition to achieve mean fluorescence.

Where [2] appears, read: Na+ currents, rat DRG neurons, whole-cell patch clamp, 3 min in presence of drug, read-out: IC50.

Molecules are shown by their SMILES. Where two headings read alike, the source gives them in different places. Where only a bound is given, the exact number is not on record here.

In general, IC50 refers to the midpoint of a concentration-inhibition curve. The term EC50 denotes the concentration at which the effect is half-maximal. As for `CC(C)=CCCC1(C)CC1CO` (centres unmarked) [OBM 2979, (2-methyl-2-(4-methylpent-3-en-1-yl)cyclopropyl)methanol], the IC50 is 100 to 1000 µM in assay [1] (setting [2]); 700 µM in assay [1] (percentage sodium current versus concentration, FIG. 1, read-out: Calculated IC50); “agonist” at TRPV1. In addition, the EC50 with zebrafish embryos is 1 to 100 µM.
In the case of `COCC1CC1(C)CCC=C(C)C` (centres unmarked) [OBM 2989, 2-(methoxymethyl)-1-methyl-1-(4-methylpent-3-en-1-yl)cyclopropane], the IC50 in assay [1] (setting [2]) is 5000 to 10000 µM. The concentration giving a half-maximal response (EC50) with zebrafish embryos is above 450 µM.
On the same counts, the results for `CC(C)=CCCC1(C)CC1COCc1ccccc1` (centres unmarked) [OBM 2993] are below 10000 µM and above 450 µM.
The corresponding values for `CC(C)=CCCC1(C)CC1COCc1ccccc1Br` (centres unmarked) [OBM 2994, 1-bromo-2-(((2-methyl-2-(4-methylpent-3-en-1-yl)cyclopropyl)methoxy)methyl)benzene] are below 10000 µM and above 450 µM.
The corresponding values for `CC(C)=CCCC1(C)CC1COCc1ccccc1Cl` (centres unmarked) [OBM 2995, 1-chloro-2-(((2-methyl-2-(4-methylpent-3-en-1-yl)cyclopropyl)methoxy)methyl)benzene] are below 10000 µM and above 450 µM.
In the case of `CC(C)=CCCC1(c2ccccc2)CC1CO` (centres unmarked) [OBM 2999, (2-(4-methylpent-3-en-1-yl)-2-phenylcyclopropyl) methanol], the IC50 in assay [1] (setting [2]) was in the range of 1000 to 5000 µM. In the assay on zebrafish embryos, this molecule returned an EC50 of 100 to 450 µM.

The record behind these values is US20140357725A1, “TERPENE ANALOGUES AND USES THEREOF FOR TREATING NEUROLOGICAL CONDITIONS” (NEUROQUEST INC., priority 2011, published 2014).
